Results reported in ChEMBL document CHEMBL4007412, “Design, Synthesis, and Biological Evaluation of Mitochondria-Targeted Flavone-Naphthalimide-Polyamine Conjugates with Antimetastatic Activity” (J Med Chem, 2017).
Activity calls are given as the source filed them. The rule behind the calls is not given here.

What was measured:
[1] = tested on: HepG2; assay: Antiproliferative activity against human HepG2 cells assessed as reduction in cell viability at 20 uM pre-treated with NAC after 48 hrs by MTT assay; type: functional, cell-based
[2] = Cytotoxicity against human QSG7701 cells assessed as reduction in cell viability up to 20 uM after 24 to 72 hrs by MTT assay; type: cell-based
[3] = tested on: SMMC-7721; assay: Antiproliferative activity against human SMMC7721 cells assessed as reduction in cell viability at 20 uM pre-treated with NAC after 48 hrs by MTT assay; type: functional, cell-based
[4] = tested on: HepG2; assay: Inhibition of colony formation of human HepG2 cells up to 20 uM […] by crystal violet staining based colony formation assay; type: functional, cell-based
[5] = tested on: HepG2; assay: Cytotoxicity against human HepG2 cells assessed as reduction in cell viability up to 20 uM after 24 to 72 hrs by MTT assay; type: functional, cell-based
[6] = Drug localization in human HepG2 cell lysosomes at 10 uM after 8 hrs by Lyso tracker-staining based confocal microscopic analysis; type: ADME, Lysosome
[7] = Drug localization in human HepG2 cell membranes at 10 uM after 8 hrs by DiO-staining based microscopic analysis; type: ADME
[8] = tested on: HepG2; assay: Induction of ROS generation in human HepG2 cells assessed as depletion of GSH content at 20 uM after 24 hrs by GSSG assay; type: functional, cell-based
[9] = tested on: Mus musculus; assay: Toxicity in Kunming mouse xenografted with […] cells assessed as effect on spleen weight index at 3 mg/kg, iv dosed every day starting from day 8 after tumor cell inoculation; type: organism-based; conditions: in vivo
[10] = tested on: HepG2; assay: Effect on spermidine levels in human HepG2 cells at 20 uM after 24 hrs by HPLC analysis; type: functional, cell-based
[11] = tested on: HepG2; assay: Effect on spermine levels in human HepG2 cells at 20 uM after 24 hrs by HPLC analysis; type: functional, cell-based
[12] = tested on: Mus musculus; assay: Toxicity in Kunming mouse xenografted with […] cells assessed as effect on kidney weight index at 3 mg/kg, iv dosed every day starting from day 8 after tumor cell inoculation; type: organism-based; conditions: in vivo
[13] = tested on: HepG2; assay: Antiproliferative activity against human HepG2 cells assessed as reduction in cell viability at 20 uM pre-treated with CAT after 48 hrs by MTT assay; type: functional, cell-based
[14] = tested on: SMMC-7721; assay: Cytotoxicity against human SMMC7721 cells assessed as cell growth inhibition after 48 hrs by MTT assay; type: functional, cell-based; conditions: SMMC-7721, 48 h
[15] = tested on: HepG2; assay: Induction of ROS generation in human HepG2 cells at 20 uM after 24 hrs in presence of NAC by DCFH-DA-staining based HCS analysis; type: functional, cell-based
[16] = Drug uptake in human SMMC7721 cells assessed as PAT-mediated cellular uptake after 8 hrs by HCS analysis; type: ADME, cell-based
[17] = Drug uptake in human HepG2 cells assessed as PAT-mediated cellular uptake after 8 hrs by HCS analysis; type: ADME, cell-based
[18] = Drug uptake in human HepG2 cells assessed as PAT-mediated compound uptake by measuring fluorescent intensity at 5 to 10 uM after 6 hrs in presence of spermidine by HCS analysis; type: ADME, cell-based
[19] = tested on: Mus musculus; assay: Toxicity in Kunming mouse xenografted with […] cells assessed as effect on lung weight index at 3 mg/kg, iv dosed every day starting from day 8 after tumor cell inoculation; type: organism-based; conditions: in vivo
[20] = tested on: SMMC-7721; assay: Antimigratory activity against human SMMC7721 cells incubated for 24 hrs by transwell assay; type: functional, cell-based
[21] = tested on: Mus musculus; assay: Toxicity in Kunming mouse xenografted with […] cells assessed as effect on heart weight index at 3 mg/kg, iv dosed every day starting from day 8 after tumor cell inoculation; type: organism-based; conditions: in vivo
[22] = tested on: HepG2; assay: Induction of apoptosis in human HepG2 cells assessed as up-regulation of caspase 3 expression up to 20 uM after 24 hrs by Western blot analysis; type: functional, cell-based
[23] = tested on: SMMC-7721; assay: Inhibition of colony formation of human SMMC7721 cells up to 20 uM […] by crystal violet staining based colony formation assay; type: functional, cell-based
[24] = tested on: HepG2; assay: Induction of cleaved PARP expression in human HepG2 cells up to 20 uM pre-treated with NAC measured after 24 hrs by Western blot analysis; type: functional, cell-based
[25] = tested on: HepG2; assay: Disruption of mitochondrial membrane potential in human HepG2 cells at 20 uM after 24 hrs by Rhodamine123 staining-based flow cytometry; type: functional, cell-based
[26] = Drug uptake in human SMMC7721 cells assessed as PAT-mediated cellular uptake at 10 uM by HCS analysis; type: ADME, cell-based; conditions: TDE = time-dependent effect
[27] = tested on: SMMC-7721; assay: Effect on SSAT expression in human SMMC7721 cells at 5 to 20 uM after 24 hrs by Western blot analysis; type: functional, cell-based
[28] = tested on: H22; assay: Antimetastatic activity against […] xenografted in pulmonary metastasis Kunming mouse model assessed as reduction in tumor metastatic nodules at 3 mg/kg, iv dosed every day starting from day 8 after tumor cell inoculation by H/E staining based leica microscopic analysis; type: functional, organism-based
[29] = tested on: HepG2; assay: Induction of ROS generation in human HepG2 cells at 20 uM after 24 hrs in presence of CAT by DCFH-DA-staining based HCS analysis; type: functional, cell-based
[30] = tested on: SMMC-7721; assay: Effect on spermidine levels in human SMMC7721 cells at 20 uM after 24 hrs by HPLC analysis; type: functional, cell-based
[31] = tested on: HepG2; assay: Induction of apoptosis in human HepG2 cells assessed as necrotic cells at 20 uM after 24 hrs by Annexin V-FITC/propidium iodide staining based flow cytometric analysis (reference value: 2.99 %); type: functional
[32] = tested on: SMMC-7721; assay: Cytotoxicity against human SMMC7721 cells assessed as reduction in cell viability up to 20 uM after 24 to 72 hrs by MTT assay; type: functional, cell-based

Question: Which results are given for `Cl.Cl.NCCCCNCCCCN1C(=O)c2cccc3c(-c4cc(=O)c5ccccc5o4)ccc(c23)C1=O`?
Answer: Activity [1]: inactive; Activity [2]: Non-Toxic; Activity [3]: inactive; Activity [4]: Active; Activity [5]: Active; Drug uptake [6]: Not Active; Drug uptake [7]: Not Active; Activity [8]: Active; Activity [9]: Non-Toxic; Activity [10]: inactive; Activity [11]: inactive; Activity [12]: Non-Toxic; Activity [13]: inactive; IC50 [14]: 14.1 µM; Activity [15]: inactive; Drug uptake [16]: Dose-dependent effect; Drug uptake [17]: Dose-dependent effect; Drug uptake [18]: Not Active; Activity [19]: Non-Toxic; Activity [20]: Dose-dependent effect; Activity [21]: Non-Toxic; Activity [22]: Active; Activity [23]: Active; Activity [24]: inactive; Activity [25]: Active; Drug uptake [26]: Tde; Activity [27]: inactive; Activity [28]: Active; Activity [29]: inactive; Activity [30]: inactive; Activity [31]: 8.91%; Activity [32]: Active
